In patent US10870647B2, “Imidazopyridine derivative, method for preparing same, and pharmaceutical composition containing same as active ingredient for preventing or treating cancer” (DAEGU-GYEONGBUK MEDICAL INNOVATION FOUNDATION, priority 2016, dated 2020):

Tests used:
Test in all cases: Kinase selectivity, scanMAX Kinase assay panel (DiscoverX), % control at 1 uM
Assay type in all cases: binding
[1] = target: T1, scanMAX Kinase assay panel (Homo sapiens, UniProt Q9Y2U5); settings: MAP3K2; 1 uM; read-out: Percent Control (%)
T1 construct: purchased DiscoverX
T1 sequence (Q9Y2U5 1-619): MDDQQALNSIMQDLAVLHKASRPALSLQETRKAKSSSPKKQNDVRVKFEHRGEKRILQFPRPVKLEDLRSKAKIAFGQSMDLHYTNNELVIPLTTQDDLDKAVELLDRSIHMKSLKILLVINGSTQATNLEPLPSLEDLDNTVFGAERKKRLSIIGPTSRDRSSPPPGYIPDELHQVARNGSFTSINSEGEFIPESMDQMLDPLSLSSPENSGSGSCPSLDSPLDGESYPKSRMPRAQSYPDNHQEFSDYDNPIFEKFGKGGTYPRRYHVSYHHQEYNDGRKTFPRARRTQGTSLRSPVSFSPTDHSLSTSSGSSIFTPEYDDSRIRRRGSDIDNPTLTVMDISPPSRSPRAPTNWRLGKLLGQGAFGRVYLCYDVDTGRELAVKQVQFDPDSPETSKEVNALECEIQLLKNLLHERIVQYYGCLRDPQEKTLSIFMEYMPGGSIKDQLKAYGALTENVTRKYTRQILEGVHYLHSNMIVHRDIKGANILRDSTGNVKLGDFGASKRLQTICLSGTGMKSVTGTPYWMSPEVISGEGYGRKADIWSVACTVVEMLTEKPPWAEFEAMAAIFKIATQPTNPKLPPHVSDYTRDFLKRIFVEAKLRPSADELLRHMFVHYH
Procedure, shortened: (§1)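 Compounds were tested at 1 uM in DMSO against each enzyme in the panel. Percent control was calculated as (compound − positive control)/(negative control − positive control) × 100, and a compound was scored active on a kinase when this value fell below 35.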

[2] = target: T2, scanMAX Kinase assay panel (Homo sapiens, UniProt P16234); settings: PDGFRA; 1 uM; read-out: Percent Control (%)
T2 construct: purchased DiscoverX
Procedure, shortened: as §1

[3] = target: T3, scanMAX Kinase assay panel (Homo sapiens, UniProt P08581, M1250T); settings: MET (M1250T); 1 uM; read-out: Percent Control (%)
T3 construct: purchased DiscoverX
Procedure, shortened: as §1

[4] = target: T4, scanMAX Kinase assay panel (Homo sapiens, UniProt Q16659); settings: ERK3; 1 uM; read-out: Percent Control (%)
T4 construct: purchased DiscoverX
Procedure, shortened: as §1

[5] = target: T5, scanMAX Kinase assay panel (Homo sapiens, UniProt Q13237); settings: PRKG2; 1 uM; read-out: Percent Control (%)
T5 construct: purchased DiscoverX
T5 sequence (Q13237 1-762): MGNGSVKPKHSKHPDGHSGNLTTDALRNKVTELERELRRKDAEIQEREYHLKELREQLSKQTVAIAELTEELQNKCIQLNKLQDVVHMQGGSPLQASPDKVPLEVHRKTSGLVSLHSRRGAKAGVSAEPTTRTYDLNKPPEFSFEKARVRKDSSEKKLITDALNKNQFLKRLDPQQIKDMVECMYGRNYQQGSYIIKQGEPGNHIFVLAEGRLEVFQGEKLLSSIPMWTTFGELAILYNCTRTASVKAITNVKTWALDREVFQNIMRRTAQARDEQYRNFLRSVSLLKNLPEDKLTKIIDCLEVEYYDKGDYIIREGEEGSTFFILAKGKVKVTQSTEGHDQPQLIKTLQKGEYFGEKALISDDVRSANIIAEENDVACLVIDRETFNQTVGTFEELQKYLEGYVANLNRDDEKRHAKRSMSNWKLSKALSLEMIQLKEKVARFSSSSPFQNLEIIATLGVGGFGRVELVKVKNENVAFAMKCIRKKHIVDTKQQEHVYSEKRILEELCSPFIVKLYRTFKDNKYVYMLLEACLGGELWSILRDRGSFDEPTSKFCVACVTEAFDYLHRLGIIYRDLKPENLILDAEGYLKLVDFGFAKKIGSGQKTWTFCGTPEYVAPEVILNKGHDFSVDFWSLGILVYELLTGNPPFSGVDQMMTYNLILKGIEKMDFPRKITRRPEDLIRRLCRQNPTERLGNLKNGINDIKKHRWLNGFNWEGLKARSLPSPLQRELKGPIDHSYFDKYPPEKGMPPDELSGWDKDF
Procedure, shortened: as §1

[6] = target: T6, scanMAX Kinase assay panel (Homo sapiens, UniProt O14920); settings: IKK-beta; 1 uM; read-out: Percent Control (%)
T6 construct: purchased DiscoverX
T6 sequence (O14920 1-756): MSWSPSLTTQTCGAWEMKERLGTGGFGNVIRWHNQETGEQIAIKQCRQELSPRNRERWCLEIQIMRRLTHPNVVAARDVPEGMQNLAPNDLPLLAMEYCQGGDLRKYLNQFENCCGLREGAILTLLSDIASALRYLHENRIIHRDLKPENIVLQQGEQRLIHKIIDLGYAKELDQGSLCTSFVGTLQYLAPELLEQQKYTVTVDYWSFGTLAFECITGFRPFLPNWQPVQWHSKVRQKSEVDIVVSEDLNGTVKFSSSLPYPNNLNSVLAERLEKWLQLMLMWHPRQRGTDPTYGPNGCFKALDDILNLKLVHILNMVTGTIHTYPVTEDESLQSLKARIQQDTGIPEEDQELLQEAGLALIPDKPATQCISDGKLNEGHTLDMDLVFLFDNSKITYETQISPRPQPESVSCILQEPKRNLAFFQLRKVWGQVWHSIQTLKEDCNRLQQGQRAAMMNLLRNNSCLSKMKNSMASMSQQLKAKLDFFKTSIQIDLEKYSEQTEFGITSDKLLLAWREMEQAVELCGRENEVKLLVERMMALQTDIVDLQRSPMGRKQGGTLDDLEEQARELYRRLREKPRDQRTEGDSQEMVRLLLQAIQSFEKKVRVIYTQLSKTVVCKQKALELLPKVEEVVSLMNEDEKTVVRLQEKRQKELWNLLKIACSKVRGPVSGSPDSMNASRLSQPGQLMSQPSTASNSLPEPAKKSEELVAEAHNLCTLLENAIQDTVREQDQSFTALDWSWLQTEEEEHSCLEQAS
Procedure, shortened: as §1

T2 sequence (P16234 24-1089): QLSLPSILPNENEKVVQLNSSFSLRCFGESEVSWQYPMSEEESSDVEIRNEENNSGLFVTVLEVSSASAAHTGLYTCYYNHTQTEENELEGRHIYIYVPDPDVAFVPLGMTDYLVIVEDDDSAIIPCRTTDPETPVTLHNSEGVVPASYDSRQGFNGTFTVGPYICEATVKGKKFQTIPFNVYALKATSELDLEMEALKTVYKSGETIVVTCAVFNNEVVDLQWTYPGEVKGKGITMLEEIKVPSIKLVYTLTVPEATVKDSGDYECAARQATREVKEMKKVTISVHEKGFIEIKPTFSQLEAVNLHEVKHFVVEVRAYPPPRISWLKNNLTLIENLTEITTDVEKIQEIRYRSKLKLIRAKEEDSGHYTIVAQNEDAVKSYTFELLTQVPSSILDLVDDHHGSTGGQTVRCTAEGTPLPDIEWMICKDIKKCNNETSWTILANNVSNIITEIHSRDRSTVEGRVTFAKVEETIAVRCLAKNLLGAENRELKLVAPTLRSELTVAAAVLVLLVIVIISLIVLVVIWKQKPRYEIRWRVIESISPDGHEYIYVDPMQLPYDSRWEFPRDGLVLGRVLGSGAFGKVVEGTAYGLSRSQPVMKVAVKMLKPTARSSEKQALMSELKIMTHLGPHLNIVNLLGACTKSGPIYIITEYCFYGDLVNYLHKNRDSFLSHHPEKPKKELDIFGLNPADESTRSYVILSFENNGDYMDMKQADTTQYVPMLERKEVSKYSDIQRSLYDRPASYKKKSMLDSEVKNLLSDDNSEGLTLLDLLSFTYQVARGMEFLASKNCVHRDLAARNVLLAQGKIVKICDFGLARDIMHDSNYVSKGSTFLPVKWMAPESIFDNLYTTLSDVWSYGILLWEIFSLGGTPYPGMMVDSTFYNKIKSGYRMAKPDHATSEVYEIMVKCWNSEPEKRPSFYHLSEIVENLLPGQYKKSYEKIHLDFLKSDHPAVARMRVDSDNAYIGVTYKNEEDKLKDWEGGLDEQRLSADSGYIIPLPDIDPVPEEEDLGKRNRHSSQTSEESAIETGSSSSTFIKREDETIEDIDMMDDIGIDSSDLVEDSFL
T3 sequence (P08581 25-1390 M1250T): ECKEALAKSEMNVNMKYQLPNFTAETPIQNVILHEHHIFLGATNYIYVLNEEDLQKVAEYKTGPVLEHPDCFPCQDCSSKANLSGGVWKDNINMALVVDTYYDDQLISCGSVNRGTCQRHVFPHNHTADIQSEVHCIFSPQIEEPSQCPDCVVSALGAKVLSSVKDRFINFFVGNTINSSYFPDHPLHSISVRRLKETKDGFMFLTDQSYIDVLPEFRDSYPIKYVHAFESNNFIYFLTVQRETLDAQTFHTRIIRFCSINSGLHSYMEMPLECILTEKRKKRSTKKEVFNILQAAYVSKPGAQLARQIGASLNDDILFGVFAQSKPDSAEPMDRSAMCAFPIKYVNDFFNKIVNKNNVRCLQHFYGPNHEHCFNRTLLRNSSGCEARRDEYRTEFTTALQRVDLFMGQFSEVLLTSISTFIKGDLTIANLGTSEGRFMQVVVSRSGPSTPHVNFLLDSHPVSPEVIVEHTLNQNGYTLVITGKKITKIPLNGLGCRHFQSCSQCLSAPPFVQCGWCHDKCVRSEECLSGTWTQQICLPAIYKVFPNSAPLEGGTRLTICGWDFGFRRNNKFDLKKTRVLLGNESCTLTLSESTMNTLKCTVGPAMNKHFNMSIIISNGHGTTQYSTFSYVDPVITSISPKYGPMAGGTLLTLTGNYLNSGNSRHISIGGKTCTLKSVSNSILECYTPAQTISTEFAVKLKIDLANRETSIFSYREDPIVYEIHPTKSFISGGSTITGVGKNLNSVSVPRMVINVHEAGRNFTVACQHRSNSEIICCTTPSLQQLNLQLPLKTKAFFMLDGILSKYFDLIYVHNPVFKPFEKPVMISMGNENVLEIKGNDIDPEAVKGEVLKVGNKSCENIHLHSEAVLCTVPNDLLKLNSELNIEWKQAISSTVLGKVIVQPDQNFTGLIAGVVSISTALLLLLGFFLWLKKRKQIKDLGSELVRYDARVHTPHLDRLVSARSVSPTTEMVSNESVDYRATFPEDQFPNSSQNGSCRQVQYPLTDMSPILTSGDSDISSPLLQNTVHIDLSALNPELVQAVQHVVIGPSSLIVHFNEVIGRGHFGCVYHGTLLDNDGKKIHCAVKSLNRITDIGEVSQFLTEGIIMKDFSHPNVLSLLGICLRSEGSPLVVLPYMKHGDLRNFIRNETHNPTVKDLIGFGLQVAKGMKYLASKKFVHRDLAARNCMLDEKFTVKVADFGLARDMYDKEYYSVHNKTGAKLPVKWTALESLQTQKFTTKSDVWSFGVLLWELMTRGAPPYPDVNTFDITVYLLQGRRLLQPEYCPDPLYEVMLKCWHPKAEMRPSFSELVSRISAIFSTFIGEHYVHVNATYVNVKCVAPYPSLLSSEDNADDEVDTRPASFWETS
T4 sequence (Q16659 whole entry): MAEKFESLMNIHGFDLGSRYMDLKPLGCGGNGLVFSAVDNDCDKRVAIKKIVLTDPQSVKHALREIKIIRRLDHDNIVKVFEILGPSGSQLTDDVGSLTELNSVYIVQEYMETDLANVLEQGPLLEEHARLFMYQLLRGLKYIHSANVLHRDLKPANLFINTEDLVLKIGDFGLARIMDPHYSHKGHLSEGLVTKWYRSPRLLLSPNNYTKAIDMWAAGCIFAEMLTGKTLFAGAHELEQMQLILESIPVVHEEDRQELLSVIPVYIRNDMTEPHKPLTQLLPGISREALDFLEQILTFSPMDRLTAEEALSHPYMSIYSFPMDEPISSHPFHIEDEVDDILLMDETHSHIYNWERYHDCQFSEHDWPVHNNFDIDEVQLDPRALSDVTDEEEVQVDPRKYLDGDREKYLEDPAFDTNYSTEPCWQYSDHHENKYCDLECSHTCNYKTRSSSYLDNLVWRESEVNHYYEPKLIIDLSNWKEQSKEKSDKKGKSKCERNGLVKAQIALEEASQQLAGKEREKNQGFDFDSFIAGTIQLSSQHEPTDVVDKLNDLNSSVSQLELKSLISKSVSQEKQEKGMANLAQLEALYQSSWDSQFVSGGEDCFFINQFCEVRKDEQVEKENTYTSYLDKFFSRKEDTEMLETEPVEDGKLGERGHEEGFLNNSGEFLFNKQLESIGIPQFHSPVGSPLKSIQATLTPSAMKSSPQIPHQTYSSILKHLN

Work on Cc1ccc(C(=O)Nc2ccc(CN3CCN(C)CC3)c(C(F)(F)F)c2)cc1C#Cc1cnc2c(Nc3cnn(C)c3)cccn12 [Example 1, 4-methyl-3-((8-((1-methyl-1H-pyrazol-4-yl)amino)imidazo[1,2-a]pyridin-3-yl)ethynyl)-N-(4-((4-methylpiperazin-1-yl)methyl)-3-(trifluoromethyl)phenyl)benzamide] yielded a remaining binding at 1 µM [1] of 1%, a remaining binding at 1 µM [2] of 1% and a remaining binding at 1 µM [3] of 32%. For the same compound, the remaining binding at 1 µM [4] was 100%, the remaining binding at 1 µM [5] was 75% and the remaining binding at 1 µM [6] was 3%.

With Cc1cn(-c2cc(NC(=O)c3ccc(C)c(C#Cc4cnc5c(Nc6cnn(C)c6)cccn45)c3)cc(C(F)(F)F)c2)cn1 [Example 12, 4-methyl-N-(3-(4-methyl-1H-imidazol-1-yl)-5-(trifluoromethyl)phenyl)-3-((8-((1-methyl-1H-pyrazol-4-yl)amino)imidazo[1,2-a]pyridin-3-yl)ethynyl)benzamide] the remaining binding at 1 µM [1] was 84%, the remaining binding at 1 µM [2] was 4% and the remaining binding at 1 µM [3] was 28%. For the same compound, the remaining binding at 1 µM [4] was 94%, the remaining binding at 1 µM [5] was 90% and the remaining binding at 1 µM [6] was 39%.

For Cc1ccc(NC(=O)C2(C(=O)Nc3ccc(F)cc3)CC2)cc1C#Cc1cnc2c(Nc3cnn(C(C)C)c3)cccn12 [Example 78], the remaining binding at 1 µM [1] was 100%, the remaining binding at 1 µM [2] was 29% and the remaining binding at 1 µM [3] was 91%. It also gave a remaining binding at 1 µM [4] of 100%, a remaining binding at 1 µM [5] of 100% and a remaining binding at 1 µM [6] of 100%.
